Laboratory results as given in patent US12410178B2, “Small cationic ortho-5,15-di-heteroaryl-porphyrin derivatives and their applications in photoinactivation of microorganisms” (UNIVERSIDADE DE COIMBRA, priority 2019, dated 2025).

Key:
[1] = n-Octanol:PBS partition ratio (modified shake-flask); assay type: physicochemical; conditions: equal volumes
From the text: n-Octanol:PBS partition ratio: a modification of the shake-flask method was employed to determine the equilibrium concentrations of the photosensitizer in n-octanol and in phosphate-buffered saline (PBS) mixed in equal volumes, using the typical fluorescence band of the same photosensitizer and the ratio of the fluorescences after dilution by the same factor with dimethylsulfoxide.

[2] = Optical absorption, molar absorption coefficient; assay type: physicochemical; conditions: water with 9% dimethylsulfoxide
Description: Optical Absorption: The ultra-violet visible optical absorption (UV-vis) spectra used in the control of the synthesis were recorded on Hitachi U-2001 or Shimadzu 2100 spectrophotometers using spectroscopic grade solvents. The UV-Vis-NIR optical absorption was recorded with an Agilent Cary5000 UV-Vis-NIR Spectrophotometer in the determination of the molar absorption coefficient and with Shimadzu UV-2100 spectrometer in routine measurements. The absorption spectra were recorded in the wavelengths from 300 nm up to 800 nm. Molar absorption coefficients were determined by using Beer-Lambert's law. For each compound, a minimum of 6 solutions were prepared in concentrations ranging from 10^−7 to 10^−6 M, giving absorbance values between 0.1 and 1.
The absorptivities of the compounds and other photophysical and photobiological properties were measured as described in the Materials and Methods. […] This is indicative of negligible aggregation between the molecules, which exist mostly as monomers at the studied concentrations in the selected solvents. […] The same table also presents the fluorescence quantum yield (ΦF), singlet oxygen generation (ΦΔ) and the logarithm of the n-octanol:water partition coefficient (log POW). […]

## Cn1cc[n+](C)c1C1=C2C=CC3=[N+]2[Zn@]24[n]5c(ccc51)C=C1C=CC(=[N+]12)C(c1n(C)cc[n+]1C)=c1ccc([n]14)=C3 [Formula (IIa), 5,15-bis(1,3-dimethylimidazol-2-yl)porphyrinate zinc (II) diiodide]
[1]
  log Pow: −1.16
[2]; at 407 nm
  ε(λ)/10^3 molar absorption coefficient: >20 10^3 M^−1 cm^−1
[2]
  λ (most intense absorption band): 407 nm
